Common to all, as to test: NCI tumour cell line growth inhibition, 48 h
Assay [1] relates to A498 renal.
Assay [2] relates to MDA-MB-435.
Assay [3] deals with SF-539 CNS.
Assay [4] relates to KM12 colon.
Assay [5] relates to M14 melanoma.
For assay [6], the system named is K-562 leukemia.
In assay [7] the test system is OVCAR-8 ovarian.
Assay [8] relates to LOX IMVI melanoma.
The test system of assay [9] is SK-MEL-28 melanoma.
Assay [10] deals with U251 CNS.
Assay [11] has as its system OVCAR-5 ovarian.

This passage reports TGI and GI50 results from PubChem BioAssay (NCI).

Several values for one entry are separate records, joined by “and”; a condition that tells them apart may be missing. Equal entries are not always repeated.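 Briefly, cells in 96-well plates were exposed to five compound concentrations for 48 h, and endpoints were estimated by linear interpolation. The concentration for 50% growth inhibition is given as GI50. TGI: total growth inhibition.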 Some results are limits rather than exact numbers.

On to `O=C(Nc1ccccc1)N1CCN(C(=O)Nc2ccccc2)C1=S`, for which the TGI in assay [1] was 7.64 µM; in [2], above 100 µM; in [3], 41.5 µM; in assay [4], above 100 µM; in assay [5], above 100 µM; in assay [6], above 100 µM. The TGI in [7], in [8], in assay [9] and in [10] was above 100 µM each time.
For the compound `Clc1ccc2c(NCCCCCCNc3ccnc4cc(Cl)ccc34)ccnc2c1`, the TGI in assay [11] turned out to be 17.9 µM; in [1], 42.3 µM; in [2] it was 12.5 µM; in assay [3], 3.6 µM; in [4], 7.88 µM; in [5] it was 3.51 µM. Also, the TGI in assay [6] stood at 4.98 µM; in assay [7], 4.9 µM; in assay [8], 3.35 µM; in assay [9], 9.78 µM; in assay [10] it was 5.82 µM.
`CC(C)(C)C(=O)Nc1c(C=O)ccc2[nH]cnc12`: the TGI in assay [11], in [1], in [2], in [3], in assay [4] and in assay [5] was above 100 µM each time. In addition, the TGI in [6], in assay [7], in assay [8], in assay [9] and in assay [10] was above 100 µM in each case.
As for `COC(=O)c1sc(=O)sc1SCc1cccc(CSc2sc(=O)sc2C(=O)OC)c1`, the TGI in assay [11], in [1], in assay [2], in assay [4], in [5] and in assay [6] was above 100 µM each time. In addition, the TGI in [7] was above 100 µM; in [8], above 100 µM; in assay [9], above 100 µM; in assay [10], 34.3 µM.
As to `C[n+]1cccc2ccc3cccnc3c21`, the TGI was above 100 µM in [11]; above 100 µM in [1]; above 100 µM in assay [2]; above 100 µM in assay [3]; 96.6 µM in assay [4]; above 100 µM in assay [5]. The TGI in [6], in assay [7], in [8], in assay [9] and in assay [10] was above 100 µM in each case.
Take `COc1cccc2c1C(=O)c1c(O)c3c(c(O)c1C2=O)C[C@@](O)(C(C)=O)CC3OC1CC(OC2CC(N)C(O)C(C)O2)C(O)C(C)O1` (stereo not given in full): the TGI in assay [11] is above 100 µM; in assay [1], above 100 µM; in [2], above 100 µM; in assay [3], above 76.8 µM; in assay [4], above 100 µM; in assay [5], above 100 µM. Besides, the TGI is above 100 µM in [6]; above 100 µM in assay [7]; above 100 µM in assay [8]; above 100 µM in [9]; above 87.6 µM in assay [10].
Turning to `COC(=O)C1OC(O[C@H]2CC[C@]3(C)[C@H]4CC=C5[C@@H]6CC(C)(C)CC[C@]6(C(=O)OC6OCC(O)C(O)C6OC6OC(C)C(OC7OCC(O)C(O)C7O)C(O)C6O)[C@H](O)C[C@@]5(C)[C@]4(C)CC[C@H]3C2(C)C)C(O)C(O)C1O` (stereo not given in full), the TGI was 15.8 µM and 19.4 µM in [11]; 3.55 µM and 3.85 µM in assay [1]; 3.78 µM and 5.21 µM in assay [2]; > 100 µM and 37.5 µM in [3]; 13.1 µM and 13 µM in [4]; 7.65 µM and 14.8 µM in assay [5]. Also, the TGI is above 100 µM in [6]; 26.8 µM and 8.47 µM in assay [7]; 19.6 µM and 14.5 µM in [8]; 3.57 µM and 4.63 µM in assay [9]; 17.7 µM and 19.8 µM in assay [10]. Also, the GI50 in assay [3] is > 100 µM and 19 µM; in assay [7] it was 11.8 µM and 2.76 µM.
Turning to `CC(=O)CC1(CBr)Nc2ccc([N+](=O)[O-])cc2NC1=O` (stereo not given), the TGI in [11], in assay [1], in assay [2], in assay [3], in assay [4] and in assay [5] was above 100 µM each time. Further, the TGI in assay [6], in assay [7], in assay [8], in assay [9] and in assay [10] was above 100 µM in each case.
In the case of `CC(C)(C)C1CCC2c3c([nH]c4ccccc34)C3C(=O)N(c4ccc([N+](=O)[O-])cc4)C(=O)C3C2C1` (stereo not given), the TGI is above 100 µM in [11]; 79.4 µM in assay [1]; above 100 µM in assay [2]; 42.7 µM in assay [3]; 35.7 µM in assay [4]; 86.2 µM in assay [5]. In addition, the TGI was 55.3 µM in assay [6]; above 100 µM in assay [7]; 20.8 µM in [8]; above 100 µM in assay [9]; 38.5 µM in [10].
Take `CCN(CC)C(=S)SC(C(=O)Nc1nnc(-c2ccc(Cl)cc2)o1)c1ccccc1` (stereo not given): the TGI was 26.6 µM in [11]; 41.4 µM in [1]; 36 µM in assay [2]; 30.5 µM in assay [3]; 58.2 µM in assay [4]; 27.6 µM in [5]. Also, the TGI in assay [6] is 42.4 µM; in assay [7], above 100 µM; in assay [8], 40.2 µM; in assay [9], 33.5 µM; in assay [10], 65.3 µM.
On to `N#CCCC(C=O)(CCC#N)CCC#N`, for which the TGI in [11], in [1], in assay [2], in assay [3], in assay [4] and in assay [5] was above 100 µM in each case. For the same compound, the TGI in assay [6], in assay [7], in assay [8], in assay [9] and in [10] was above 100 µM throughout.
In the case of `O=c1c2cc(Br)cc(Br)c2[nH]c(=S)n1-c1ccc(N=Nc2ccc(O)c3cccnc23)cc1`, the TGI was above 100 µM in [11]; above 100 µM in assay [1]; above 100 µM in assay [2]; 31.3 µM in assay [3]; above 100 µM in [4]; above 100 µM in [5]. Also, the TGI in assay [6] is above 100 µM; in assay [7], above 100 µM; in [8] it was above 100 µM; in assay [9], above 100 µM; in [10] it was 62.3 µM.
On to `COC(=O)c1c2c(cc3c1CC1(Cc4cc5c(c(C=O)c4C1)CCC5)C3)CCC2` (stereo not given), for which the TGI in assay [11] was above 100 µM; in assay [1] it was above 100 µM; in assay [2], 50.5 µM; in [3], above 100 µM; in [5] it was 75.6 µM; in assay [6], above 100 µM. In addition, the TGI in assay [7] is above 100 µM; in [8], 56.5 µM; in assay [9] it was above 100 µM; in assay [10] it was 57.3 µM.
Turning to `COc1cc(CCNC2=CC(=O)c3nc[nH]c3C2=O)ccc1O`, the TGI was 35.8 µM in assay [11]; 71 µM in [1]; 31.4 µM in assay [2]; above 100 µM in assay [3]; 82.2 µM in [4]; 33.5 µM in [5]. The TGI is above 100 µM in assay [6]; 47.6 µM in [7]; 45.7 µM in [8]; 60.4 µM in [9]; 63.3 µM in assay [10].
With `Cc1cn(CCCCCCOC(=O)NC(CCCNC(N)=O)C(=O)O)c(=O)[nH]c1=O` (stereo not given), the TGI in assay [11], in [1], in [2], in assay [3], in [4] and in assay [5] was above 100 µM in each case. Moreover, the TGI in assay [6], in assay [7], in assay [8], in assay [9] and in assay [10] was above 100 µM in each case.
Regarding `O=C1[C@@H]2[C@@H](CN3CN(c4ccccc4)N=C(c4ccccc4)[C@@]23c2ccccc2)C(=O)N1c1ccccc1`, the TGI is 10.4 µM in [11]; 36.6 µM in [1]; 23.2 µM in assay [2]; above 75.5 µM in [4]; 9.73 µM in assay [5]; above 25.4 µM in [6]. Moreover, the TGI is 13.9 µM in assay [7], 3.3 µM in assay [8], 26 µM in assay [9] and above 65.6 µM in [10].
In the case of `COc1cc2c(cc1O)C1Cc3ccc(OC)c(O)c3C[N+]1(C)CC2` (stereo not given), the TGI in assay [11], in assay [1], in [2], in assay [3], in [4] and in assay [5] was above 100 µM throughout. The TGI in assay [6], in assay [7], in assay [8], in [9] and in assay [10] was above 100 µM in each case.
For the compound `C=C(Br)CN=CN(C)C`, the TGI in [11], in assay [1], in assay [2], in assay [3], in assay [5] and in assay [6] was above 100 µM each time. In addition, the TGI in assay [7], in assay [8], in assay [9] and in assay [10] was above 100 µM in each case.
On to `CCC1(c2ccc(N3C(=O)c4cccc5cc([N+](=O)[O-])cc(c45)C3=O)cc2)CCC(=O)NC1=O` (stereo not given), for which the TGI is above 100 µM in [11]; 97.8 µM in assay [1]; above 100 µM in assay [2]; above 100 µM in assay [4]; above 100 µM in [5]; above 100 µM in assay [6]. Moreover, the TGI is 28 µM in [7], above 70.6 µM in assay [8], 86.8 µM in assay [9] and 23.8 µM in assay [10].
On to `Nc1[nH]c(=O)nc2c1ncn2C1OC(CO)C(O)C1O` (stereo not given), for which the TGI in assay [11], in assay [1], in [2], in [4], in assay [5] and in assay [6] was above 100 µM in each case. Further, the TGI in [7] was 74.4 µM; in assay [8], above 100 µM; in [9] it was above 100 µM; in [10] it was above 100 µM.
With `N[C@@H](CCC(=O)NC(Cc1ccccc1)C(=O)NCP(=O)(O)O)C(=O)O` (stereo not given in full), the TGI in [11], in assay [1], in [2], in [3], in assay [4] and in assay [6] was above 100 µM each time. The TGI in assay [7], in [8], in [9] and in [10] was above 100 µM throughout.
Consider `C=C1CCC[C@@H](C)C(O)[C@@H]2OC(=O)C(=C)[C@@H]2C[C@@H](OC(C)=O)[C@@]2(C)CC[C@@H]1O2` (stereo not given in full), for which the TGI in [11] came out at 16.1 µM; in assay [1], 19.2 µM; in assay [2], 15.1 µM; in assay [3], 15.3 µM; in assay [4], 14.6 µM; in assay [5], 13.6 µM. Further, the TGI in assay [6] came to 12.1 µM; in [7], 16.4 µM; in [9] it was 15.1 µM; in [10], 17.8 µM.
`COc1cc2c(/C=C3/C(=O)Nc4ccccc43)c(Cl)n(Cc3ccc(Cl)cc3)c2cc1C`: the TGI in assay [11] was determined as 8.84 µM; in assay [1] it was 3.4 µM; in assay [2], 0.428 µM; in assay [3] it was 0.668 µM; in [4] it was 1.02 µM; in assay [5], 1.75 µM. In addition, the TGI in [7] was found to be 0.989 µM; in [8], 2.54 µM; in assay [9], 22.9 µM; in assay [10], 1.23 µM.
Consider `CC1=C(C)C(=O)C(C2=CC(=O)c3ccccc3C2=O)=C(C2=CC(=O)c3ccccc3C2=O)C1=O`, for which the TGI in [11] is above 100 µM; in assay [1], 50.8 µM; in assay [2], 1.19 µM; in assay [3], above 100 µM; in [4], 28.9 µM; in assay [5], above 40.8 µM. The TGI is above 62.3 µM in assay [7], above 21.2 µM in [8], 23.5 µM in [9] and above 45.3 µM in assay [10].
On to `Cc1c(C)c2c(c(N)c1C#N)C(=O)N(N)C2=O`, for which the TGI in assay [11], in [1], in [2], in assay [3], in assay [4] and in assay [5] was above 100 µM throughout. The TGI in assay [6], in assay [7], in assay [9] and in assay [10] was above 100 µM each time.
